{"source": "patent US8664187B2", "about": "“Methods of treatment of endobronchial infections” (Novartis AG, priority 2004, dated 2014)", "origin": "cited, not measured here", "key": {"P. aeruginosa [1]": {"system": "P. aeruginosa", "settings": "300 mg inhaled twice daily, P<0.001 vs placebo"}, "P. aeruginosa [2]": {"system": "P. aeruginosa", "settings": "600 mg tid aerosolized; 71 CF patients"}, "P. aeruginosa isolates": {"system": "P. aeruginosa isolates", "settings": "CF patients, 1993"}}, "note": "Like-named read-outs stand apart in the source and are kept apart here.", "data": [{"smiles": "NC[C@H]1O[C@H](O[C@H]2[C@H](O)[C@@H](O[C@H]3O[C@H](CO)[C@@H](O)[C@H](N)[C@H]3O)[C@H](N)C[C@@H]2N)[C@H](N)C[C@@H]1O", "note": "[tobramycin]", "values": [{"measurement": "average decrease in P. aeruginosa density", "setting": "P. aeruginosa [1]; 28 days on/28 days off, Week 0 to Week 20", "result": 0.8, "unit": "log10"}, {"measurement": "average decrease in P. aeruginosa density", "setting": "P. aeruginosa [1]; Week 0 to Week 4", "result": 1.9, "unit": "log10"}, {"measurement": "spirometry", "setting": "P. aeruginosa [2]", "result": "improved spirometry"}, {"measurement": "sputum density of P. aeruginosa", "setting": "P. aeruginosa [2]", "result": "significant reduction in sputum density"}, {"measurement": "concentrations effective in inhibiting the growth of many Gram-negative bacteria", "setting": "Gram-negative bacteria", "result": "< 4", "unit": "µg/mL"}, {"measurement": "MICs of 90% of isolates", "setting": "P. aeruginosa isolates", "result": "≤ 16", "unit": "µg/mL"}, {"measurement": "MICs of 98% of all isolates", "setting": "P. aeruginosa isolates", "result": "≤ 128", "unit": "µg/mL"}]}]}
